Data from ChEMBL document CHEMBL5614395 (Eur J Med Chem, 2024).

Test: in vitro
Conditions: human, Caco-2

In order of falling Papp A→B:
1. COc1cc(-n2ncc3c(-c4cccc(-c5ccc(CN(C)C67CCC(C(=O)O)(CC6)CC7)c(OC)n5)c4Cl)cccc32)cc(OC)c1CN(C)[C@H]1C[C@H](O)C1  3 ×10⁻⁶ cm/s
2. COc1cc(-n2ncc3c(-c4cccc(-c5ccc(CN[C@H]6C[C@@H](O)C6)c(OC)n5)c4Cl)cccc32)cc(OC)c1CN(C)C12CCC(C(=O)O)(CC1)CC2  0.4 ×10⁻⁶ cm/s
3. COc1cc(-n2ncc3c(-c4cccc(-c5ccc(CN[C@H]6C[C@@H](O)C6)c(OC)n5)c4Cl)cccc32)cc(OC)c1CN1CC(C(=O)O)C1  0.1 ×10⁻⁶ cm/s
